Patent publication EP0199524B1, “Platinum tramine antitumor agents” (ENGELHARD CORPORATION, priority 1985, dated 1986)

Legend:
[1] = literature statement on charged platinum species; cited from earlier work
S180 ascites = assay: Screening for anti-tumor activity against S180 ascites (S180a) in mice; format: in vivo, female CFW Swiss mice; conditions: medium H2O; for 30-Day Survivors: S180a in mice, survivors/mice in set; for %ILS: injected day 1, S180a in mice, upper limit 100%
Description: The compounds were evaluated for anti-tumor activity against S180 ascites in female CFW Swiss mice by the following procedure: CFW mice, averaging 20g, are immediately inspected and placed in newly prepared cages. On day zero the mice are inoculated with 0.2 ml. of a freshly prepared saline suspension (0.15 M NaCl) containing 1 x 10⁷ tumor cells/ml, or a total of 2 x 10⁶ cells. This inoculum is freshly prepared using "transfer" mice which have been injected with tumor cells the previous week. This inoculum is the end-product of a series of steps which involves (1) the removal of the cells from the peritoneal cavity of the sacrificed transfer mouse, (2) alternate centrifugation-washing (2-3 times with cold saline) to remove occasional blood and other undesirable components, and finally (3) dilution (1:3) of the packed cell volume with saline (the final centrifugation being carried out at 1,000 rpm for 2 min.). A cell count is made on a 2,000-fold dilution of this 1:3 suspension by means of a Coulter Counter. A final dilution to 1 x 10⁷ cells/ml. is made based on the averaged count. On day 1, solutions of the test compounds are prepared and the mice injected, with each mouse of a set of six being injected with the same test compound at the same dose level.
ILS values above 50% represent significant activity; those above 75% represent excellent activity.

Compound	antitumor activity [1]	30-Day Survivors (S180 ascites; Dose 10 mg/kg)	%ILS (S180 ascites; Dose 10 mg/kg)	30-Day Survivors (S180 ascites; Dose 20 mg/kg)	%ILS (S180 ascites; Dose 20 mg/kg)	30-Day Survivors (S180 ascites; Dose 40 mg/kg)	%ILS (S180 ascites; Dose 40 mg/kg)	30-Day Survivors (S180 ascites; Dose 80 mg/kg)	%ILS (S180 ascites; Dose 80 mg/kg)	30-Day Survivors (S180 ascites; Dose 160 mg/kg)	%ILS (S180 ascites; Dose 160 mg/kg)	30-Day Survivors (S180 ascites; Dose 320 mg/kg)	%ILS (S180 ascites; Dose 320 mg/kg)
N.N.N.N.[Cl][Pt][Cl] [[Pt(NH₃)₄]Cl₂]	completely inactive	–	–	–	–	–	–	–	–	–	–	–	–
Cc1cccc(O)[n+]1[Pt-2]([NH3+])([NH3+])[Cl].[Cl-] (stereo not drawn) [Example 3, Cis-Chlorodiammine-6-methyl-2-hydroxypyridineplatinum(II) Chloride]	–	0/6	-9%	0/6	-6%	0/6	12%	0/6	15%	5/6	93%	3/6	93%
[Cl][Pt-2]([Cl])([Cl])[Cl].[K+].[K+] [K₂PtCl₄]	completely inactive	–	–	–	–	–	–	–	–	–	–	–	–
